The record followed here is patent publication US11162124B2, “Alcohol dehydrogenase mutant and application thereof in cofactor regeneration” (Jiangnan University, priority 2018, dated 2021).

Substitutions are numbered along the chain they refer to.

Type in all cases: biochemical
In test [1] the target is T1, alcohol dehydrogenase KpADH mutant M1 (V84I; parent SEQ ID No. 1) (Vanderwaltozyma polyspora, UniProt A7TM80, V84I).
T1 sequence (A7TM80 1-342 V84I): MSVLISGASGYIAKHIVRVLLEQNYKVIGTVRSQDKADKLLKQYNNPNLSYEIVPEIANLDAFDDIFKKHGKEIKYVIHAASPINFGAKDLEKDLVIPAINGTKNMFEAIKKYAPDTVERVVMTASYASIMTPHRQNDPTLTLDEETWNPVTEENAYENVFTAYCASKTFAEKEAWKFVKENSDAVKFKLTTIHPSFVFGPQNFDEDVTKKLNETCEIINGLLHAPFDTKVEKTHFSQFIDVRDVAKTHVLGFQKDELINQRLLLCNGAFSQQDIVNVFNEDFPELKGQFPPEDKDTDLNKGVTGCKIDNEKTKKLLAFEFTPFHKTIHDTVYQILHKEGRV
The test can be described thus: Kinetic analysis of KpADH mutant M1 toward diol co-substrates. As for the experimental part:
M1 is obtained by mutating valine at position 84 into isoleucine in alcohol dehydrogenase having an original amino acid sequence as set forth in SEQ ID No. 1;
(§1) Changes in absorbance at 340 nm are measured.
(§2) The enzyme activity is calculated using the following formula: Enzyme activity (U)=EW×V×10^3/(6220×I);
(§3) In the formula, EW is the change in absorbance at 340 nm in 1 min; V is the volume of the reaction solution in mL; 6220 is the molar extinction coefficient of NAD(P)H in L/(mol·cm); I is optical distance in cm.
(§4) One unit of activity (U) corresponds to the amount of enzyme required for the catalytic oxidation of 1 μmol NADP^+ per minute under the above conditions.
(§5) Kinetic measurement is conducted according to the enzyme activity assay, with 10 μL of alcohol substrates of different concentrations, 1 mM NADP^+, 10 μL of enzymes of appropriate concentrations, 170 μL of glycine-sodium hydroxide buffer at pH 9.5, with each sample in triplicate. […] The calculation formulas are as follows: […]
(§6) The Vmax and Km values can be calculated from the intercepts of the double reciprocal plot on the X and Y axes;
(§7) The kcat value can be further calculated according to the formula.
(§8) The activity of KpADH under different substrate concentrations and cofactor concentrations was measured, and a double reciprocal plot was made according to the reciprocals of the activity and substrate concentration. The kinetic parameters were calculated.
(§9) The activity of KpADH under different substrate concentrations and cofactor concentrations was measured, and a double reciprocal plots were made according to the reciprocals of the activity and substrate concentration. The kinetic parameters were calculated.

Test [2] has as its target T2, alcohol dehydrogenase KpADH mutant M2 (Y127C; parent SEQ ID No. 1) (Vanderwaltozyma polyspora, UniProt A7TM80, Y127C).
T2 sequence (A7TM80 1-342 Y127C): T1 sequence (A7TM80 1-342 V84I) with I84V, Y127C
The test can be described thus: Kinetic analysis of KpADH mutant M2 toward diol co-substrates. Here is the method:
M2 is obtained by mutating tyrosine at position 127 into cysteine in alcohol dehydrogenase having an original amino acid sequence as set forth in SEQ ID No. 1;
as §1, §2, §3
One unit of activity (U) corresponds to the amount of enzyme required for the catalytic oxidation of 1 μmol NADP^+ per minute under the above conditions. […]
as §6, §7, §8, §9

Test [3] addresses T3, alcohol dehydrogenase KpADH mutant M5 (V84I/Y127M; parent SEQ ID No. 1) (Vanderwaltozyma polyspora, UniProt A7TM80, V84I/Y127M).
T3 sequence (A7TM80 1-342 V84I/Y127M): T1 sequence (A7TM80 1-342 V84I) with Y127M
Briefly: Kinetic analysis of KpADH mutant M5 toward diol co-substrates. As to conditions: mutant M5 relative to wild-type KpADH. As for the experimental part:
the M5 is obtained by mutating valine at position 84 into isoleucine and tyrosine at position 127 into methionine in alcohol dehydrogenase having an original amino acid sequence as set forth in SEQ ID No. 1.
as §1, §2, §3, §4, §5, §6, §7, §8, §9

Test [4] deals with T4, alcohol dehydrogenase KpADH mutant M3 (Y127M; parent SEQ ID No. 1) (Vanderwaltozyma polyspora, UniProt A7TM80, Y127M).
T4 sequence (A7TM80 1-342 Y127M): T1 sequence (A7TM80 1-342 V84I) with I84V, Y127M
Briefly: Kinetic analysis of KpADH mutant M3 toward diol co-substrates. Particulars: mutant M3. Here is the method: M3 is obtained by mutating tyrosine at position 127 into methionine in alcohol dehydrogenase having an original amino acid sequence as set forth in SEQ ID No. 1;
as §1, §2, §3, §4, §5, §6, §7, §8, §9

Where [5] appears, read: mutant M1, 1 mM NADP+, Gly-NaOH pH 9.5, 30° C.
The mark [6] stands for this setting: mutant M1 relative to wild-type KpADH.

For orientation: kcat means the number of substrate molecules converted per active site and unit of time at saturation. Usually kcat/KM stands for the turnover number divided by the Michaelis constant. On to `OCCCCO` [1,4-butanediol], for which, in test [1] (setting [5]), the catalytic constant (kcat) is 1.26 ± 0.0217 s⁻¹. For the same compound, in test [1] (setting [5]), the kcat/KM was determined as 10.3 M⁻¹ s⁻¹. Also, in test [1] (setting [6]), the “kcat value, times that of wild-type KpADH” value was determined as 7.3 times. The “kcat/Km value, times that of wild-type KpADH” value in test [1] (setting [6]) is reported as 4.53 times; in test [3], 14.7 times. The catalytic rates kcat in test [2] worked out at 27.8 mM; in test [4] it was 16.8 mM.
